From patent publication US10815238B2, “Antimicrobial compounds and methods of making and using the same” (BIOVERSYS AG, priority 2013, dated 2020)

These molecules were tested on Eschericia coli (E. coli) strain ATCC25922 (assay: Standard microdilution assay, MIC against E. coli ATCC25922). Settings: Escherichia coli; E. coli strain ATCC25922, standard microdilution assay; cutoff 16 micrograms/mL; read-out: MIC E. Coli.
Format: cell-based
Procedure, shortened: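 MIC determined by broth microdilution following CLSI protocols, with reference strains run in parallel for quality control. Activity scored +/− at a cutoff of 16 micrograms/mL.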

`C[C@H](N)CCCc1cc(Cl)c(F)c(-c2cc3cn(-c4ccc(CNCC[C@@H](C)N)cc4)c(=O)nc3[nH]2)c1` [Compound 187] and `C[C@H](N)CCCc1cc(Cl)c(F)c(-c2cc3cn(-c4ccc(CNCC[C@H](N)CO)cc4)c(=O)nc3[nH]2)c1` [Compound 192] cannot be ordered by MIC: under 16 µg/mL for the first, under 16 µg/mL for the second.

`C=CC[C@@H](CCNCc1ccc(-n2cc3cc(-c4cc(CCC[C@H](C)N)cc(Cl)c4F)[nH]c3nc2=O)cc1)NC(=N)N` [Compound 202] and `C=CC[C@H](CCNCc1ccc(-n2cc3cc(-c4cc(CCC[C@H](C)N)cc(Cl)c4F)[nH]c3nc2=O)cc1)NC(=N)N` [Compound 207] cannot be ordered by MIC: under 16 µg/mL for the first, under 16 µg/mL for the second.

`C[C@H](N)CCCc1cc(Cl)c(F)c(-c2cc3cn(-c4ccc([C@H](C)NCC[C@@H](Cc5c[nH]nn5)NC(=N)N)cc4)c(=O)nc3[nH]2)c1` [Compound 266] and `C[C@H](N)CCCc1cc(Cl)c(F)c(-c2cc3cn(-c4ccc([C@H](C)NCC[C@@H](CCCN)NC(=N)N)cc4)c(=O)nc3[nH]2)c1` [Compound 281] cannot be ordered by MIC: under 16 µg/mL for the first, under 16 µg/mL for the second.

`COC[C@H](N)CCNCc1ccc(-n2cc3cc(-c4cc(CCC[C@H](C)N)cc(Cl)c4F)[nH]c3nc2=O)cc1` [Compound 178] and `C=C[C@H](CCNCc1ccc(-n2cc3cc(-c4cc(CCC[C@H](C)N)cc(Cl)c4F)[nH]c3nc2=O)cc1)NC(=N)N` [Compound 180] cannot be ordered by MIC: under 16 µg/mL for the first, under 16 µg/mL for the second.

`C[C@H](N)CCCc1cc(Cl)c(F)c(-c2cc3cn(-c4ccc([C@H](N)C(=O)NCCNC(=N)N)cc4)c(=O)nc3[nH]2)c1` [Compound 253] and `C[C@H](N)CCCc1cc(OC(F)(F)F)c(F)c(-c2cc3cn(-c4ccc([C@H](N)C(=O)NCCNC(=N)N)cc4)c(=O)nc3[nH]2)c1` [Compound 255] cannot be ordered by MIC: under 16 µg/mL for the first, under 16 µg/mL for the second.

Going from `C[C@H](N)CCCc1cc(SC(F)(F)F)cc(-c2cc3cn(-c4ccc([C@@H](NCCCNC(=N)N)c5ccc(O)cc5)cc4)c(=O)nc3[nH]2)c1` [Compound 25] to `C[C@H](N)CCCc1cc(-c2cc3cn(-c4ccc([C@@H](NCCCNC(=N)N)c5ccc(S(C)(=O)=O)cc5)cc4)c(=O)nc3[nH]2)cc(C(F)(F)F)c1` [Compound 60], the MIC rises from under 16 µg/mL to over 16 µg/mL.

`C[C@H](N)CCCc1cc(Cl)c(F)c(-c2cc3cn(-c4ccc([C@H](CCO)NCCCNC(=N)N)cc4)c(=O)nc3[nH]2)c1` [Compound 15] and `C[C@H](N)CCCc1cc(Cl)c(F)c(-c2cc3cn(-c4ccc([C@H](CO)NCCCNC(=N)N)cc4)c(=O)nc3[nH]2)c1` [Compound 103] cannot be ordered by MIC: under 16 µg/mL for the first, under 16 µg/mL for the second.

`C[C@H](N)CCCc1cc(Cl)c(F)c(-c2cc3cn(-c4ccc([C@H](C)NCC[C@@H](CNCc5nccs5)NC(=N)N)cc4)c(=O)nc3[nH]2)c1` [Compound 272] and `C[C@H](N)CCCc1cc(OC(F)(F)F)c(F)c(-c2cc3cn(-c4ccc([C@H](C)NCC[C@@H](CNCc5nccs5)NC(=N)N)cc4)c(=O)nc3[nH]2)c1` [Compound 277] cannot be ordered by MIC: under 16 µg/mL for the first, under 16 µg/mL for the second.

`C=C[C@H](CCN[C@@H](C)c1ccc(-n2cc3cc(-c4cc(CCC[C@H](C)N)cc(Cl)c4F)[nH]c3nc2=O)cc1)NC(=N)N` [Compound 236] and `C[C@H](N)CCCc1cc(Cl)c(F)c(-c2cc3cn(-c4ccc([C@@H](C)NCCCN)cc4)c(=O)nc3[nH]2)c1` [Compound 318] cannot be ordered by MIC: under 16 µg/mL for the first, under 16 µg/mL for the second.

`C[C@H](N)CCCc1cc(-c2cc3cn(-c4ccc([C@H](C)N[C@H](C)CCNC(=N)N)cc4)c(=O)nc3[nH]2)cc(C(F)(F)F)c1` [Compound 226] and `C[C@H](N)CCCc1cc(-c2cc3cn(-c4ccc([C@@H](CO)NCCCNC(=N)N)cc4)c(=O)nc3[nH]2)cc(C(F)(F)F)c1` [Compound 51] cannot be ordered by MIC: under 16 µg/mL for the first, under 16 µg/mL for the second.

`C=CCNCCCN[C@@H](C)c1ccc(-n2cc3cc(-c4cc(CCC[C@H](C)N)cc(C(F)(F)F)c4)[nH]c3nc2=O)cc1` [Compound 216] and `C=CCN(CCCN[C@@H](C)c1ccc(-n2cc3cc(-c4cc(CCC[C@H](C)N)cc(C(F)(F)F)c4)[nH]c3nc2=O)cc1)C(=N)N` [Compound 215] cannot be ordered by MIC: under 16 µg/mL for the first, under 16 µg/mL for the second.

`C[C@H](N)CCCc1cc(Cl)c(F)c(-c2cc3cn(-c4ccc([C@@H](NCCCNC(=N)N)C5CC5)cc4)c(=O)nc3[nH]2)c1` [Compound 102] and `C[C@H](N)CCCc1cc(Cl)c(F)c(-c2cc3cn(-c4ccc([C@H](CCN)NCCCNC(=N)N)cc4)c(=O)nc3[nH]2)c1` [Compound 19] cannot be ordered by MIC: under 16 µg/mL for the first, under 16 µg/mL for the second.

`C[C@H](N)CCCc1cc(Cl)c(F)c(-c2cc3cn(-c4ccc([C@@H](NCCCNC(=N)N)c5cccnc5)cc4)c(=O)nc3[nH]2)c1` [Compound 61] and `C[C@H](NCCCNC(=N)N)c1ccc(-n2cc3cc(-c4cc(CCC[C@@H](N)CF)cc(Cl)c4F)[nH]c3nc2=O)cc1` [Compound 135] cannot be ordered by MIC: under 16 µg/mL for the first, under 16 µg/mL for the second.

Compared with `C[C@H](N)CCCc1cc(Cl)c(F)c(-c2cc3cn(-c4ccc(CN[C@@H](C)CCN)cc4)c(=O)nc3[nH]2)c1` [Compound 196], `C[C@H](N)CCCc1cc(Cl)c(F)c(-c2cc3cn(-c4ccc(CN)cc4)c(=O)nc3[nH]2)c1` [Compound 136] is higher in MIC: under 16 µg/mL for the first, over 16 µg/mL for the second.

`C[C@H](N)CCCc1cc(Cl)c(F)c(-c2cn3cc(-c4ccc([C@H](C)NCCCNC(=N)N)cc4)c(=O)nc3[nH]2)c1` [Compound 302] and `C[C@H](NCCCNC(=N)N)c1ccc(-n2cc3cc(-c4cc(CCC[C@@H](N)CN)cc(Cl)c4F)[nH]c3nc2=O)cc1` [Compound 319] cannot be ordered by MIC: under 16 µg/mL for the first, under 16 µg/mL for the second.

`COc1ccc(CNCc2ccc(-n3cc4cc[nH]c4nc3=O)cc2)cn1` [Compound 144] and `C[C@H](N)CCCc1cc(Cl)c(F)c(-c2cc3cn(-c4ccc(CNCc5cccnc5)cc4)c(=O)nc3[nH]2)c1` [Compound 112] cannot be ordered by MIC: over 16 µg/mL for the first, over 16 µg/mL for the second.

`C[C@H](N)CCCc1cc(OC(F)(F)F)c(F)c(-c2cc3cn(-c4ccc([C@H](C)NCC[C@@H](CCO)NC(=N)N)cc4)c(=O)nc3[nH]2)c1` [Compound 248] and `C[C@H](N)CCCc1cc(OC(F)(F)F)c(F)c(-c2cc3cn(-c4ccc([C@H](C)NCC[C@H](CO)NC(=N)N)cc4)c(=O)nc3[nH]2)c1` [Compound 263] cannot be ordered by MIC: under 16 µg/mL for the first, under 16 µg/mL for the second.

`C[C@H](N)CCCc1cc(Cl)c(F)c(-c2cc3cn(-c4ccc([C@H](C)N[C@@H](CCO)CCNC(=N)N)cc4)c(=O)nc3[nH]2)c1` [Compound 303] and `C[C@H](N)CCCc1cc(Cl)c(F)c(-c2cc3cn(-c4ccc(CN[C@H](CO)CCNC(=N)N)cc4)c(=O)nc3[nH]2)c1` [Compound 249] cannot be ordered by MIC: under 16 µg/mL for the first, under 16 µg/mL for the second.

`C[C@H](N)CCCc1cc(Cl)c(F)c(-c2cc3cn(-c4ccc(CNCc5cnc(N)s5)cc4)c(=O)nc3[nH]2)c1` [Compound 158] and `C[C@H](N)CCCc1cc(Cl)c(F)c(-c2cc3cn(-c4ccc(CNCc5nn[nH]n5)cc4)c(=O)nc3[nH]2)c1` [Compound 162] cannot be ordered by MIC: over 16 µg/mL for the first, over 16 µg/mL for the second.

`COCC[C@H](NCCCNC(=N)N)c1ccc(-n2cc3cc(-c4cc(CCC[C@H](C)N)cc(Cl)c4F)[nH]c3nc2=O)cc1` [Compound 29] and `C[C@H](NCCCNC(=N)N)c1ccc(-n2cc3cc(-c4cc(CCC[C@H](C)NC(=N)N)cc(Cl)c4F)[nH]c3nc2=O)cc1` [Compound 309] cannot be ordered by MIC: under 16 µg/mL for the first, under 16 µg/mL for the second.

`CCc1c(F)c(CCC[C@H](C)N)cc(-c2cc3cn(-c4ccc([C@H](C)NCCCNC(=N)N)cc4)c(=O)nc3[nH]2)c1F` [Compound 218] and `C[C@H](N)CCCc1cc(-c2cc3cn(-c4ccc([C@H](C)NCCCNC(=N)N)cc4)c(=O)nc3[nH]2)c(F)cc1Cl` [Compound 10] cannot be ordered by MIC: under 16 µg/mL for the first, under 16 µg/mL for the second.

`C[C@H](N)CCCc1cc(Cl)cc(-c2cc3cn(-c4ccc([C@H](C)NCCCNC(=N)N)cc4)c(=O)nc3[nH]2)c1` [Compound 27] and `C[C@H](N)CCCc1cc(SC(F)(F)F)cc(-c2cc3cn(-c4ccc([C@H](CCF)NCCCNC(=N)N)cc4)c(=O)nc3[nH]2)c1` [Compound 75] cannot be ordered by MIC: under 16 µg/mL for the first, under 16 µg/mL for the second.

`C[C@H](NCCCNC(=N)N)c1ccc(-n2cc3cc(-c4cc(C[C@H]5C[C@H](N)CCO5)cc(OC(F)(F)F)c4)[nH]c3nc2=O)cc1` [Compound 38] and `C[C@H](NCCCNC(=N)N)c1ccc(-n2cc3cc(-c4cc(CO[C@H](CN)CO)cc(SC(F)(F)F)c4)[nH]c3nc2=O)cc1` [Compound 55] cannot be ordered by MIC: under 16 µg/mL for the first, under 16 µg/mL for the second.

`C[C@H](N)CC[C@@H](O)c1cc(-c2cc3cn(-c4ccc([C@H](C)NCCCNC(=N)N)cc4)c(=O)nc3[nH]2)cc(C(F)(F)F)c1` [Compound 21] and `C[C@H](N)CC[C@@H](O)c1cc(Cl)c(F)c(-c2cc3cn(-c4ccc([C@H](C)NCCCNC(=N)N)cc4)c(=O)nc3[nH]2)c1` [Compound 310] cannot be ordered by MIC: under 16 µg/mL for the first, under 16 µg/mL for the second.

`C[C@H](N)CCCc1cc(OC(F)(F)F)c(F)c(-c2cc3cn(-c4ccc([C@H](C)NCC[C@H](Cn5ccnn5)NC(=N)N)cc4)c(=O)nc3[nH]2)c1` [Compound 294] and `C=CC[C@H](CCN[C@@H](C)c1ccc(-n2cc3cc(-c4cc(CCC[C@H](C)N)cc(OC(F)(F)F)c4F)[nH]c3nc2=O)cc1)NC(=N)N` [Compound 260] cannot be ordered by MIC: under 16 µg/mL for the first, under 16 µg/mL for the second.

`C[C@H](N)CCCc1cc(Cl)c(F)c(-c2cc3cn(-c4ccc([C@H](C)NCCCN(C)C(=N)N)cc4)c(=O)nc3[nH]2)c1` [Compound 205] and `C[C@H](N)CCCc1cc(Cl)c(F)c(-c2cc3cn(-c4ccc(CN[C@@H](CO)CCNC(=N)N)cc4)c(=O)nc3[nH]2)c1` [Compound 273] cannot be ordered by MIC: under 16 µg/mL for the first, under 16 µg/mL for the second.

Compared with `C[C@H](N)CCCc1cc(SC(F)(F)F)cc(-c2cc3cn(-c4ccc(CNCC(=O)O)cc4)c(=O)nc3[nH]2)c1` [Compound 116], `C[C@H](N)CCCc1cc(SC(F)(F)F)cc(-c2cc3cn(-c4ccc([C@H](CCN)NCCCNC(=N)N)cc4)c(=O)nc3[nH]2)c1` [Compound 23] is lower in MIC: over 16 µg/mL for the first, under 16 µg/mL for the second.

`C[C@H](N)CCCc1cc(Cl)c(F)c(-c2cc3cn(-c4ccc(CNCC[C@H](CO)NC(=N)N)cc4)c(=O)nc3[nH]2)c1` [Compound 181] and `COc1ccc(Cn2cc(C[C@H](NCCCNC(=N)N)c3ccc(-n4cc5cc(-c6cc(CCC[C@H](C)N)cc(Cl)c6F)[nH]c5nc4=O)cc3)nn2)cc1` [Compound 41] cannot be ordered by MIC: under 16 µg/mL for the first, under 16 µg/mL for the second.

`C[C@H](N)CCCc1cc(-c2cc3cn(-c4ccc([C@H]5COC(=O)N5CCCNC(=N)N)cc4)c(=O)nc3[nH]2)cc(C(F)(F)F)c1` [Compound 98] gave an MIC of under 16 µg/mL.
